Consider five compounds from patent publication US10961235B2, “Crystalline form of masitinib” (Sandoz AG, priority 2017, dated 2021).

Where two headings read alike, the source gives them in different places.

For data set [1] the following is noted: cited from earlier work; for hygroscopicity (in words): as described in prior filings.
Data set [2] in a line: Storage stability of crystalline form M, polymorphic conversion checked by XRPD. The following applies: for conversion to crystal form I by XRPD / storage stability: 8 weeks at 40° C./75% relative humidity. Format: physicochemical. As to the method:
X-Ray powder diffraction (XRPD) was performed with a PANalytical X'Pert PRO diffractometer equipped with a theta/theta coupled goniometer in transmission geometry, Cu—Kα1,2 radiation (wavelength 0.15419 nm) with a focusing mirror and a solid state PIXcel detector. Diffractograms were recorded at a tube voltage of 45 kV and a tube current of 40 mA, applying a stepsize of 0.013° 2-Theta with 40 s per step (255 channels) in the angular range of 2° to 40° 2-Theta at ambient conditions.

Data set [3] can be described thus: Gravimetric moisture sorption (GMS) of crystalline forms of masitinib mesylate. Type of data set: physicochemical. As to the method: Gravimetric moisture sorption/desorption (GMSD) isotherms were recorded with an SPSx-1μ moisture sorption analyzer (ProUmid, Ulm). The measurement cycle was started at ambient relative humidity (RH) of 25%. Relative humidity was then decreased to 5% RH in 5% steps, followed by a further decrease to 3% RH and to 0% RH. Afterwards RH was increased from 0% to 80% RH in a sorption cycle in 5% steps.
The time per step was set to a minimum of 2 hours and a maximum of 6 hours. If an equilibrium condition with a constant mass of ±0.01% within 1 hour was reached before the maximum time for all examined samples the sequential humidity step was applied before the maximum time of 6 hours. If no equilibrium was achieved the consecutive humidity step was applied after the maximum time of 6 hours. The temperature was 25±0.1° C.

A further data set in a line: Bulk density. Format: physicochemical.
For data set [4] the following is noted: cited from earlier work.
The conditions of data set [5]: GMS, 15 to 80% RH, form A comparison (same range as FIG. 6 of WO2017/016512A1); cited from earlier work.

In the case of `CS(=O)(=O)O.Cc1ccc(NC(=O)c2ccc(CN3CCN(C)CC3)cc2)cc1Nc1nc(-c2cccnc2)cs1` [form H, salt of masitinib with methane sulfonic acid], the “hygroscopicity (in words)” value in data set [1] was “low hygroscopicity”.
As for masitinib mesylate [form M], in data set [2] (8 weeks at 30° C./60% relative humidity), the “conversion to crystal form I by XRPD after storage” value is listed as “did not convert to or show detectable traces of crystal form I”. The results for the “conversion to crystal form I by XRPD / storage stability” value in data set [2] (listed as crystal form M) and in data set [2] (listed as crystalline form M) were “storage stable” and “did not convert to or show detectable traces of crystal form I”, respectively. Also, the “time remaining stable as crystalline form M” value in data set [2] (30° C. and 65% relative humidity) is on record as “at least 8 weeks”; in data set [2] (40° C. and 75% relative humidity), “at least 8 weeks”. In addition, the “polymorphic conversion on storage” value in data set [2] (at or below 40° C., relative humidity 15% RH to 75% RH) is “does not result in polymorphic conversion”. Besides, the “hygroscopicity compared with form A” value in data set [3] is given as “less hygroscopic than form A”. In data set [3] (GMS, 15 to 80% RH, 25±0.1° C., form M, listed as Crystalline form M), the “Mass change (water uptake / weight gain) in the range of from 15-80% RH” value was 0.5-1.3 w-%. Also, in data set [3] (range of 15% RH and 80% RH), the “dependence of water content on relative humidity” value was “relatively constant water content”. Moreover, the bulk density in the data set “Bulk density” was 0.14 g/mL.
For the compound masitinib mesylate [DRX2], in data set [4] (response to the eESR / EP2886543 A1, DRX2 to DRX1 upon heating), the “temperatures at which problems with polymorphic conversion occur” value is “above 25 °C”.
With masitinib mesylate [form A], the “hygroscopicity (in words)” value in data set [1] (listed as crystal form A) was “remarkably reduced compared to DRX1”. Further, the “reversible loss of water below 10% RH” value in data set [1] (moisture sorption/desorption curves, FIG. 6 of WO2017/016512A1) was “about 5 weight-%”. Also, the “Mass change (water uptake) in the range of from 15-80% RH” value in data set [5] is 4.0-6.0 w-%.
For masitinib mesylate [crystal form I], the “water uptake in the range from 0% RH to 80% RH” value in data set [1] (0% RH to 80% RH, described for DRX I) is on record as 4.3 w-%. Further, in data set [1] (80% RH, WO 2008/098949 A2), the “behaviour at 80% relative humidity” value is “remains dry”. Besides, the “hygroscopicity (in words)” value in data set [1] (listed as DRX1) is “mildly hygroscopic”. The “weight increase between 0% RH and 80% RH” value in data set [1] (response to the eESR, EP 11170200.7) is listed as 4.3 weight-%. Besides, the “temperatures at which thermodynamically stable” value in data set [4] (WO 2008/098949 A2) was “below 200 °C”.
